Experimental data from US5091398A, “Substituted 1,2,3,4-oxatriazolium-5-olates, a process for their preparation and their use” (Cassella Aktiengellschaft, priority 1989, dated 1992).
Like-named read-outs stand apart in the source and are kept apart here.

System: pulmonary artery of the guinea pig
Assay: relaxing effect on spiral strips of the pulmonary artery of the guinea pig (modified method of Godfraind and Kaba and of Schuman et al.)
Settings: strips depolarised with 40 mmol/l potassium in calcium-free Tyrode solution, contraction by 0.5 mmol/l CaCl2, cumulative addition, mean value of 4 to 6 vessel strips, read-out: IC50 (concentration of the test substance which inhibits the contraction by 50%) (converted)
Method: The pharmacological effect of the compounds of the formula I was determined according to a modified method of Godfraind and Kaba (Arch. Int. Phamacodyn. Ther. 196, (Suppl) 35 to 49, 1972) and of Schuman et al. (Naunyn-Schmiedeberg's Arch. Phamacol. 289, 409 to 418, 1975). Spiral strips of the pulmonary artery of the guinea pig are depolarised with 40 mmol/1 of potassium after equilibration in calcium-free Tyrode solution. An addition of 0.5 mmol/1 of CaCl2 then induces a contraction. The relaxing effect of the test substance is determined by cumulative addition in 1/2 log 10 stepped concentrations. The concentration of the test substance which inhibits the contraction by 50% (=IC50, mol/1) is determined from the concentration-effect curve (abscissa: -log mol/1 of test substance, ordinate: percentage inhibition of the maximum contraction, mean value of 4 to 6 vessel strips).

CCCC(C)(C)[n+]1noc([O-])n1 [Example 5, 3-(2-Methylpent-2-yl)-1,2,3,4-oxatriazolium-5-olate]
IC50 (Cavia porcellus): 600 nM

CCC(C)(C)[n+]1noc([O-])n1 [Example 1, 3-tert-Pentyl-1,2,3,4-oxatriazolium-5-olate]
IC50 (Cavia porcellus): 3000 nM

CCOC(=O)[N-]c1cn(N2CCOCC2)n[o+]1 [Molsidomine, N-ethoxycarbonyl-3-morpholinosydnoneimine, reference compound]
IC50: > 100000 nM

CC(C)(C)NC(=O)C(C)(C)[n+]1noc([O-])n1 [Example 4, 3-(1-tert-Butylaminocarbonyl-1-methylethyl)-1,2,3,4-oxatriazolium-5-olate]
IC50 (Cavia porcellus): 60000 nM
